Reference: ChEMBL document CHEMBL3132761, “Construction of phenoxazine rings containing nitro and sulfonic acid groups leading to phenoxazine-3-sulfonamide derivatives: their evaluation as novel and potential insulin secretagogues” (Medchemcomm, 2014)

Key:
Type in all cases: functional
[1] = test system: Rattus norvegicus; assay: Hypoglycemic activity in 18 hrs fasted Wistar albino rat assessed as reduction of blood glucose level at 10 mg/kg, po after 4 hrs (reference value: 97.13 +/- 2.89 mg/dl)
[2] = test system: Rattus norvegicus; assay: Hypoglycemic activity in 18 hrs fasted Wistar albino rat assessed as reduction of blood glucose level at 10 mg/kg, po after 6 hrs (reference value: 101.01 +/- 1.60 mg/dl)
[3] = test system: Rattus norvegicus; assay: Hypoglycemic activity in 18 hrs fasted Wistar albino rat assessed as reduction of blood glucose level at 10 mg/kg, po after 2 hrs (reference value: 101.03 +/- 1.93 mg/dl)
[4] = test system: Rattus norvegicus; assay: Antidiabetic activity in streptozotocin-nicotinamide-induced diabetic model of Wistar albino rat assessed as reduction of blood glucose level at 10 mg/kg, po after 8 hrs relative to control
[5] = test system: Rattus norvegicus; assay: Antidiabetic activity in streptozotocin-nicotinamide-induced diabetic model of Wistar albino rat assessed as reduction of blood glucose level at 10 mg/kg, po after 6 hrs relative to control
[6] = test system: Rattus norvegicus; assay: Antidiabetic activity in streptozotocin-nicotinamide-induced diabetic model of Wistar albino rat assessed as reduction of blood glucose level at 10 mg/kg, po after 4 hrs relative to control
[7] = test system: Rattus norvegicus; assay: Antidiabetic activity in streptozotocin-nicotinamide-induced diabetic model of Wistar albino rat assessed as reduction of blood glucose level at 10 mg/kg, po after 2 hrs relative to control
[8] = test system: Rattus norvegicus; assay: Antidiabetic activity in streptozotocin-nicotinamide-induced diabetic model of Wistar albino rat assessed as reduction of blood glucose level at 10 mg/kg, po after 1 hr relative to control
[9] = test system: Rattus norvegicus; assay: Hypoglycemic activity in over night fasted Wistar albino rat assessed as reduction of blood glucose level at 10 mg/kg, po administered 30 mins before glucose challenge measured after 120 mins by intraperitoneal glucose tolerance test (reference value: 101.07 +/- 8.98 mg/dl)
[10] = test system: Rattus norvegicus; assay: Hypoglycemic activity in over night fasted Wistar albino rat assessed as reduction of blood glucose level at 10 mg/kg, po administered 30 mins before glucose challenge measured after 90 mins by intraperitoneal glucose tolerance test (reference value: 94.44 +/- 6.99 mg/dl)
[11] = test system: Rattus norvegicus; assay: Hypoglycemic activity in over night fasted Wistar albino rat assessed as reduction of blood glucose level at 10 mg/kg, po administered 30 mins before glucose challenge measured after 60 mins by intraperitoneal glucose tolerance test (reference value: 106.07 +/- 13.98 mg/dl)
[12] = test system: Rattus norvegicus; assay: Hypoglycemic activity in over night fasted Wistar albino rat assessed as reduction of blood glucose level at 10 mg/kg, po administered 30 mins before glucose challenge measured after 30 mins by intraperitoneal glucose tolerance test (reference value: 109.28 +/- 20.53 mg/dl)

Compound O=[N+]([O-])c1cc(S(=O)(=O)Nc2ccccc2)cc2c1Nc1ccccc1O2 has an Activity [1] of 100 mg/dL, an Activity [2] of 118.22 mg/dL and an Activity [3] of 102.6 mg/dL.
For COc1ccc(CNS(=O)(=O)c2cc3c(c([N+](=O)[O-])c2)Nc2ccccc2O3)cc1, the Activity [1] was 102.08 mg/dL, the Activity [2] was 85.93 mg/dL and the Activity [3] was 102.6 mg/dL.
With O=[N+]([O-])c1cc(S(=O)(=O)Nc2ccc(Br)cc2)cc2c1Nc1ccccc1O2 the Activity [4] was 172.2 mg/dL, the Activity [5] was 165.6 mg/dL and the Activity [1] was 85.42 mg/dL. It also gave an Activity [6] of 157.5 mg/dL, an Activity [7] of 145.6 mg/dL and an Activity [8] of 165.8 mg/dL. The Activity [9] was 119.64 mg/dL, the Activity [10] was 137.5 mg/dL and the Activity [11] was 111.4 mg/dL. For the same compound, the Activity [12] was 148.35 mg/dL, the Activity [2] was 89.58 mg/dL and the Activity [3] was 95.31 mg/dL.
In the case of Cc1ccccc1NS(=O)(=O)c1cc2c(c([N+](=O)[O-])c1)Nc1ccccc1O2, the Activity [1] is reported as 73.33 mg/dL, the Activity [9] is reported as 100 mg/dL and the Activity [10] is reported as 97.32 mg/dL. The Activity [11] was 100.44 mg/dL, the Activity [12] was 123.21 mg/dL and the Activity [2] was 87.93 mg/dL. For the same compound, the Activity [3] was 52.43 mg/dL.
In the case of Cc1ccc(NS(=O)(=O)c2cc3c(c([N+](=O)[O-])c2)Nc2ccccc2O3)c(C)c1, the Activity [1] is reported as 89.88 mg/dL, the Activity [2] is reported as 85.42 mg/dL and the Activity [3] is reported as 93.55 mg/dL.
For O=[N+]([O-])c1cc(S(=O)(=O)NCc2cccs2)cc2c1Nc1ccccc1O2, the Activity [1] was 114.06 mg/dL, the Activity [2] was 84.37 mg/dL and the Activity [3] was 86.45 mg/dL.
O=[N+]([O-])c1cc(S(=O)(=O)N2CCCCC2)cc2c1Nc1ccccc1O2 gave an Activity [1] of 69.35 mg/dL, an Activity [2] of 78.41 mg/dL and an Activity [3] of 72.67 mg/dL.
NS(=O)(=O)c1cc2c(c([N+](=O)[O-])c1)Nc1ccccc1O2 gave an Activity [1] of 69.79 mg/dL, an Activity [9] of 122.85 mg/dL and an Activity [10] of 105.72 mg/dL. It also gave an Activity [11] of 112.31 mg/dL, an Activity [12] of 124.2 mg/dL and an Activity [2] of 51.04 mg/dL. For the same compound, the Activity [3] was 65.62 mg/dL.
In the case of CCN(CC)S(=O)(=O)c1cc2c(c([N+](=O)[O-])c1)Nc1ccccc1O2, the Activity [1] is reported as 113.54 mg/dL, the Activity [2] is reported as 118.75 mg/dL and the Activity [3] is reported as 122.92 mg/dL.
In the case of O=[N+]([O-])c1cc(S(=O)(=O)Nc2ccc(Cl)cc2)cc2c1Nc1ccccc1O2, the Activity [1] is reported as 91.66 mg/dL, the Activity [9] is reported as 76.9 mg/dL and the Activity [10] is reported as 93.77 mg/dL. The Activity [11] was 106.23 mg/dL, the Activity [12] was 100.36 mg/dL and the Activity [2] was 60.93 mg/dL. For the same compound, the Activity [3] was 106.25 mg/dL.
Work on COc1ccc(NS(=O)(=O)c2cc3c(c([N+](=O)[O-])c2)Nc2ccccc2O3)cc1 yielded an Activity [1] of 120.31 mg/dL, an Activity [9] of 107.14 mg/dL and an Activity [10] of 91.42 mg/dL. The Activity [11] was 96.07 mg/dL, the Activity [12] was 130.35 mg/dL and the Activity [2] was 74.47 mg/dL. For the same compound, the Activity [3] was 116.66 mg/dL.
